Counter-ions that a name gives are not always drawn.
Columns and labels:
[1] = target: T1, human B1R receptor (hB1R) (Homo sapiens, UniProt P46663); assay: Functional investigation on the bradykinin 1 receptor (B1R), FLIPR Ca2+ assay, hB1R cells; format: cell-based; details: test substance 10 μM; CHO K1 cells transfected with human B1R gene; Fluo-4 Ca2+ signal; agonist Lys-Des-Arg9-bradykinin at EC80; % of maximum achievable inhibition; read-out: B1R antagonism, human [10 μM] % inhibition
T1 construct: expressed in transfected cells; host or cells: CHO K1 cells
T1 sequence (P46663 1-353): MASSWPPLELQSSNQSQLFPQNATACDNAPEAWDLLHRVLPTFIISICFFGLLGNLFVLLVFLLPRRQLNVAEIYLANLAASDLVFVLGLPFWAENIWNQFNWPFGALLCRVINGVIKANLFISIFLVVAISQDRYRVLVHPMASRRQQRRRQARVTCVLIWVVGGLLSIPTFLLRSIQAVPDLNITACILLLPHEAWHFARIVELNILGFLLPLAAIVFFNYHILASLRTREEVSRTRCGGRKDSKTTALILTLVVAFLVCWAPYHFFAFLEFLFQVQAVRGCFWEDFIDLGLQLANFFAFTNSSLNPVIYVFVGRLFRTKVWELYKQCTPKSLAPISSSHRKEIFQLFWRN
In short: (§1)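 CHO K1 cells stably expressing human or rat B1R, Fluo-4 loaded, read by FLIPR (λex 488, λem 540 nm). Test compound (10 μM) first gave % activation against Lys-Des-[MUT]-bradykinin ≥50 nM (hB1R) or Des-[MUT]-bradykinin 10 μM (rB1R). After 10–20 min, agonist at EC80 was added; % inhibition or IC50 from concentration series, n=2–3, N≥2.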

[2] = target: T2, B1R receptor of the rat (rB1R) (Rattus norvegicus, UniProt P97583); assay: Functional investigation on the bradykinin 1 receptor (B1R), FLIPR Ca2+ assay, rB1R cells; format: cell-based; details: test substance 10 μM; CHO K1 cells transfected with rat B1R gene; Fluo-4 Ca2+ signal; agonist Des-Arg9-bradykinin at EC80; % of maximum achievable inhibition; read-out: B1R antagonism, rat [10 μM] % inhibition
T2 construct: expressed in transfected cells; host or cells: CHO K1 cells
T2 sequence (P97583 1-337): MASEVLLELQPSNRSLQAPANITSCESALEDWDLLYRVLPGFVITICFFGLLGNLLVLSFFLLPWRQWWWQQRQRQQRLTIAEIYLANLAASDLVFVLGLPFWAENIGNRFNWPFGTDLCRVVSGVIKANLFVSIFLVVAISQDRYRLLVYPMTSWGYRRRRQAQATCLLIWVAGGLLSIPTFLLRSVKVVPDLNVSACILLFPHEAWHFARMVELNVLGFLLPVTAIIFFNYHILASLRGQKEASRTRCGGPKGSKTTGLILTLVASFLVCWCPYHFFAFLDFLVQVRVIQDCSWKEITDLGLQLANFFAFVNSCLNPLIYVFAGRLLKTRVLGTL
In short: as §1

| Compound | inhibition at 10 µM [1] [%] | inhibition at 10 µM [2] [%] |
| --- | --- | --- |
| Cc1cc(S(=O)(=O)N2CCC[C@H]2CCCS(=O)(=O)N2CCN(C3CCN(C)CC3)CC2)c(C)cc1Cl [Example 29, (S)-1-(3-(1-(4-Cloro-2,5-dimethylphenylsulfonyl)pyrrolidin-2-yl)propylsulfonyl)-4-(1-methylpiperidin-4-yl)piperazine] | 87 | 46 |
| O=S(=O)(CCC1CCN(S(=O)(=O)c2cccc(Cl)c2Cl)C1)N1CCN(c2ccncc2)CC1 (centres unmarked) [Example 21, 1-(2-(1-(2,3-Dichlorophenylsulfonyl)pyrrolidin-3-yl)ethylsulfonyl)-4-(pyridin-4-yl)piperazine hydrochloride] | 97 | 73 |
| O=S(=O)(CCC[C@@H]1CCCN1S(=O)(=O)c1ccccc1C(F)(F)F)N1CCC(Oc2ccncc2)CC1 [Example 48, (S)-4-(1-(3-(1-(2-(Trifluoromethyl)phenylsulfonyl)pyrrolidin-2-yl)propylsulfonyl)piperidin-4-yloxy)pyridine] | 81 | 75 |
| COc1cc(C)c(S(=O)(=O)N2CCC[C@H]2CCCS(=O)(=O)N2CC(N3[C@@H]4CC[C@H]3C[C@H](Oc3ccncc3)C4)C2)c(C)c1 [Example 80, (1R,3s,5S)-8-(1-(3-((S)-1-(4-Methoxy-2,6-ydimethylphenylsulfonyl)pyrrolidin-2-l)propylsulfonyl)azetidin-3-yl)-3-(pyridin-4-yloxy)-8-azabicyclo[3.2.1]octane] | 99 | 102 |
| COc1cc(C)c(S(=O)(=O)N2CCC(CCS(=O)(=O)N3CCC(CCN4CCCC4)CC3)C2)c(C)c1C (centres unmarked) [Example 16, 1-(2-(1-(4-Methoxy-2,3,6-trimethylphenylsulfonyl)pyrrolidin-3-yl)ethylsulfonyl)-4-(2-(pyrrolidin-1-yl)ethyl)piperidine hydrochloride] | 97 | 13 |
| CN1CCC(N2CCN(S(=O)(=O)CCC[C@@H]3CCCN3S(=O)(=O)c3cccc4ccccc34)CC2)CC1 [Example 30, (S)-1-(1-Methylpiperidin-4-yl)-4-(3-(1-(naphthalen-1-ylsulfonyl)pyrrolidin-2-yl)propylsulfonyl)piperazine] | 56 | 48 |
| Cc1cc(S(=O)(=O)N2CCCCC2CCS(=O)(=O)N2CCN(C3CCN(C)CC3)CC2)c(C)cc1Cl (centres unmarked) [Example 38, 1-(2-(1-(4-Chloro-2,5-dimethylphenylsulfonyl)piperidin-2-yl)ethylsulfonyl)-4-(1-methylpiperidin-4-yl)piperazine dihydrochloride] | 101 | 47 |
| CN1CCC(N2CCN(S(=O)(=O)CCC[C@@H]3CCCN3S(=O)(=O)c3ccc(Cl)cc3Cl)CC2)CC1 [Example 31, (S)-1-(3-(1-(2,4-Dichlorophenylsulfonyl)pyrrolidin-2-yl)propylsulfonyl)-4-(1-methylpiperidin-4-yl)piperazine] | 89 | 64 |
| O=S(=O)(CCC[C@@H]1CCCN1S(=O)(=O)c1ccc(C(F)(F)F)cc1Cl)N1CCC(Oc2ccncc2)CC1 [Example 71, (S)-4-(1-(3-(1-(2-Chloro-4-(trifluoromethyl)phenylsulfonyl)pyrrolidin-2-yl)propylsulfonyl)piperidin-4-yloxy)pyridine] | 30 | 39 |

Further lines, results first:

| inhibition at 10 µM [1] [%] | inhibition at 10 µM [2] [%] | Compound |
| --- | --- | --- |
| 95 | 95 | O=S(=O)(CCC[C@@H]1CCCN1S(=O)(=O)c1cccc2c(Cl)cccc12)N1CCC2(CCN(c3ccncc3)CC2)CC1 [Example 76, 3-(3-((S)-1-(5-Chloronaphthalen-1-ylsulfonyl)pyrrolidin-2-yl)propylsulfonyl)-9-(pyridin-4-yl)-3,9-diazaspiro[5.5]undecane] |
| 96 | 98 | COc1cc(C)c(S(=O)(=O)N2CCCCC2CCCS(=O)(=O)N2CCN(C3CCN(C)CC3)CC2)c(C)c1 (centres unmarked) [Example 26, 1-(3-(1-(4-Methoxy-2,6-dimethylphenylsulfonyl)piperidin-2-yl)propylsulfonyl)-4-(1-methylpiperidin-4-yl)piperazine] |
| 91 | 93 | O=S(=O)(CCC[C@@H]1CCCN1S(=O)(=O)c1ccc(F)c2ccccc12)N1CCC2(CCN(c3ccncc3)CC2)CC1 [Example 78, 3-(3-((S)-1-(4-Fluoronaphthalen-1-ylsulfonyl)pyrrolidin-2-yl)propylsulfonyl)-9-(pyridin-4-yl)-3,9-diazaspiro[5.5]undecane] |
| 100 | 103 | COc1cc(C)c(S(=O)(=O)N2CCC[C@H]2CCCS(=O)(=O)N2CCC3(CCN(c4ccncc4)C3)C2)c(C)c1 (stereo partly drawn) [Example 82, 2-(3-((S)-1-(4-Methoxy-2,6-dimethylphenylsulfonyl)pyrrolidin-2-yl)propylsulfonyl)-7-(pyridin-4-yl)-2,7-diazaspiro[4.4]nonane] |
| 82 | 105 | COc1cc(C)c(S(=O)(=O)N2c3ccccc3CC2CCCS(=O)(=O)N2CCC(O)(c3cccnc3)CC2)c(C)c1 (centres unmarked) [Example 44, 1-(3-(1-(4-Methoxy-2,6-dimethylphenylsulfonyl)indolin-2-yl)propylsulfonyl)-4-(pyridin-3-yl)piperidin-4-ol] |
| 95 | 89 | COc1cc(C)c(S(=O)(=O)N2C[C@@H](F)C[C@H]2CCCS(=O)(=O)N2CCC(Oc3ccncc3)CC2)c(C)c1 [Example 36, 4-(1-(3-((2R,4S)-4-Fluoro-1-(4-methoxy-2,6-dimethylphenylsulfonyl)pyrrolidin-2-yl)propylsulfonyl)piperidin-4-yloxy)pyridine] |
| 99 | 97 | Cc1cccc(Cl)c1S(=O)(=O)N1CCC[C@H]1CCCS(=O)(=O)N1CCC2(CCN(c3ccncc3)CC2)CC1 [Example 65, 3-(3-((S)-1-(2-Chloro-6-methylphenylsulfonyl)pyrrolidin-2-yl)propylsulfonyl)-9-(pyridin-4-yl)-3,9-diazaspiro[5.5]undecane] |
| 98 | 102 | COc1cc(C)c(S(=O)(=O)N2c3ccccc3CC2CCCS(=O)(=O)N2CCC3(CCN(c4ccncc4)CC3)CC2)c(C)c1 (centres unmarked) [Example 45, 1-(4-Methoxy-2,6-dimethylphenylsulfonyl)-2-(3-(9-(pyridin-4-yl)-3,9-diazaspiro[5.5]undecan-3-ylsulfonyl)propyl)indoline] |
| 95 | 95 | COc1cc(C)c(S(=O)(=O)N2CCC[C@H]2CCCS(=O)(=O)N2CCC(Oc3ccncc3)CC2)c(C)c1 [Example 47, (S)-4-(1-(3-(1-(4-Methoxy-2,6-dimethylphenylsulfonyl)pyrrolidin-2-yl)propylsulfonyl)piperidin-4-yloxy)pyridine] |
| 99 | 99 | COc1cc(C)c(S(=O)(=O)N2CCC[C@H]2CCCS(=O)(=O)N2CCC3(CCN(c4ccncc4)CC3)CC2)c(C)c1 [Example 64, 3-(3-((S)-1-(4-Methoxy-2,6-dimethylphenylsulfonyl)pyrrolidin-2-yl)propylsulfonyl)-9-(pyridin-4-yl)-3,9-diazaspiro[5.5]undecane] |
